This is an account of results in patent US20240197635A1, “DISSOCIATING POLYMER MATRIX COMPOSITIONS OF FULVESTRANT AND METHODS OF THEIR MAKING AND USE” (VeraMorph LLC, priority 2021, published 2024).

This data set is described as follows: In vitro dissolution of fulvestrant-loaded DPODs in simulated gastric fluid. The conditions noted are these: aqueous dissolution media.

Description: The exact time of release can vary from 5 minutes to 120 minutes, with the capability to dissolve in less than 60 minutes and in less than 30 minutes and in less than 20 minutes depending on the exact pH. These parameters can be controlled by modifying the extent of drug loading and the composition of the DPOD.

For `C[C@]12CC[C@@H]3c4ccc(O)cc4C[C@@H](CCCCCCCCC[S+]([O-])CCCC(F)(F)C(F)(F)F)[C@H]3[C@@H]1CC[C@@H]2O` (stereo partly drawn) [fulvestrant, 7α-[9-[(4,4,5,5,5-Pentafluoropentyl)-sulfinyl]nonyl]estra-1,3,5(10)-triene-3,17β-diol], the “saturation concentration of fulvestrant” value is 2 µg/mL.
